Results on 23 molecules are retold here after PubChem BioAssay AID256 (DTP/NCI, 2004).

In the assay the test system is CD2F1 mice, L1210 leukemia ip, survival T/C. The assay can be described thus: NCI In Vivo Anticancer Drug Screen. Data for tumor model L1210 Leukemia (intraperitoneal) in CD2F1 (CDF1) mice. The settings on record: higher = longer survival. In outline:
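Transplantable tumor in mice; compound-treated vs vehicle-treated groups. Read-out = treated/control ratio of the measured endpoint.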

The mark [1] stands for this setting: endpoint: mean survival time, dose: 25.0 mg/kg/injection, schedule: Q01DX009 (ip), vehicle: saline with Tween-80.
[2] abbreviates: endpoint: mean survival time, dose: 50.0 mg/kg/injection, schedule: Q01DX009 (ip), vehicle: saline with Tween-80.
The mark [3] stands for this setting: endpoint: mean survival time, dose: 100.0 mg/kg/injection, schedule: Q01DX009 (ip), vehicle: saline with Tween-80.
Setting [4] is: endpoint: mean survival time, dose: 200.0 mg/kg/injection, schedule: Q01DX009 (ip), vehicle: saline with Tween-80.
The mark [5] stands for this setting: endpoint: mean survival time, dose: 100.0 mg/kg/injection, schedule: Q04DX003 (ip), vehicle: saline with Tween-80.
[6] abbreviates: endpoint: mean survival time, dose: 200.0 mg/kg/injection, schedule: Q04DX003 (ip), vehicle: saline with Tween-80.
The mark [7] stands for this setting: endpoint: mean survival time, dose: 400.0 mg/kg/injection, schedule: Q04DX003 (ip), vehicle: saline with Tween-80.
[8] abbreviates: endpoint: mean survival time, dose: 200.0 mg/kg/injection, schedule: Q01DX001 (ip), vehicle: other.
Setting [9] is: endpoint: mean survival time, dose: 100.0 mg/kg/injection, schedule: Q01DX001 (ip), vehicle: saline with Tween-80.
Setting [10] is: endpoint: mean survival time, dose: 200.0 mg/kg/injection, schedule: Q01DX001 (ip), vehicle: saline with Tween-80.
Setting [11] is: endpoint: mean survival time, dose: 400.0 mg/kg/injection, schedule: Q01DX001 (ip), vehicle: saline with Tween-80.
[12] abbreviates: endpoint: mean survival time, dose: 100.0 mg/kg/injection, schedule: Q04DX002 (ip), vehicle: saline with Tween-80.
Setting [13] is: endpoint: mean survival time, dose: 400.0 mg/kg/injection, schedule: Q01DX009 (ip), vehicle: saline with Tween-80.

Where “and” joins values, the source holds several entries; their conditions need not be identical. Identical values can stand only once. Toxic doses and inconclusive results are not listed.

Take `Cc1nc(N)sc1S(=O)(=O)F`: the T/C reads like this: under setting [1], 97 % of control; under setting [2], 111 % of control; under setting [3], 94 % of control and 108 % of control; under setting [4], 101 % of control.

Regarding `COc1ccc(C(=O)C(CN(C)C)CN(C)C)cc1`, the T/C (endpoint: median survival time, dose: 3.12 mg/kg/injection, schedule: Q01DX009 (ip), vehicle: saline) was 96 % of control; the T/C (endpoint: median survival time, dose: 6.25 mg/kg/injection, schedule: Q01DX009 (ip), vehicle: saline) is 103 % of control; the T/C (endpoint: median survival time, dose: 12.5 mg/kg/injection, schedule: Q01DX009 (ip), vehicle: saline) is 104 % of control; the T/C (endpoint: median survival time, dose: 25.0 mg/kg/injection, schedule: Q01DX009 (ip), vehicle: saline) was 114 % of control.

Regarding `Cc1c2ccc3ccccc3c2c[n+]2ccccc12`, the T/C runs as follows: (endpoint: mean survival time, dose: 1.25 mg/kg/injection, schedule: Q01DX009 (ip), vehicle: Klucel (hydroxypropylcellulose) (HPC)) 87 % of control and 102 % of control; (endpoint: mean survival time, dose: 2.5 mg/kg/injection, schedule: Q01DX009 (ip), vehicle: Klucel (hydroxypropylcellulose) (HPC)) 98 % of control and 102 % of control; (endpoint: mean survival time, dose: 5.0 mg/kg/injection, schedule: Q01DX009 (ip), vehicle: Klucel (hydroxypropylcellulose) (HPC)) 100 % of control and 105 % of control; (endpoint: mean survival time, dose: 10.0 mg/kg/injection, schedule: Q01DX009 (ip), vehicle: Klucel (hydroxypropylcellulose) (HPC)) 104 % of control and 110 % of control; (endpoint: mean survival time, dose: 20.0 mg/kg/injection, schedule: Q01DX009 (ip), vehicle: Klucel (hydroxypropylcellulose) (HPC)) 105 % of control.

For `C[P+](c1ccc(Cl)cc1)(c1ccc(Cl)cc1)c1ccc(Cl)cc1`, the T/C by setting is: (endpoint: mean survival time, dose: 6.25 mg/kg/injection, schedule: Q01DX009 (ip), vehicle: saline) 119 % of control; (endpoint: mean survival time, dose: 12.5 mg/kg/injection, schedule: Q01DX009 (ip), vehicle: saline) 107 % of control; (endpoint: mean survival time, dose: 25.0 mg/kg/injection, schedule: Q01DX009 (ip), vehicle: saline) 109 % of control.

With `O=C1CSC(=S)N1Cc1ccccc1`, the T/C runs as follows: under setting [5], 101 % of control; under setting [6], 97 % of control; under setting [7], 97 % of control.

Regarding `Cc1ccc(NC(=O)N(C)N=O)cc1`, the T/C by setting is: (endpoint: mean survival time, dose: 89.0 mg/kg/injection, schedule: Q01DX001 (ip), vehicle: other) 89 % of control; (endpoint: mean survival time, dose: 133.0 mg/kg/injection, schedule: Q01DX001 (ip), vehicle: other) 87 % of control; under setting [8], 89 % of control; (endpoint: mean survival time, dose: 300.0 mg/kg/injection, schedule: Q01DX001 (ip), vehicle: other) 93 % of control.

In the case of `CN(C)c1ccc(C(O)c2ccc(N(C)C)cc2)cc1`, the T/C was 90 % of control under setting [5], 91 % of control under setting [6] and 94 % of control under setting [7].

Turning to `O=C(N/N=C/c1ccccc1)c1nn[nH]n1`, the T/C is 96 % of control under setting [9], 88 % of control under setting [10] and 88 % of control under setting [11].

In the case of `C=CC(C)n1c(=O)c2c(ncn2C)n(C)c1=O` (stereo not given), the T/C is, setting by setting: (endpoint: mean survival time, dose: 0.78 mg/kg/injection, schedule: Q04DX003 (ip), vehicle: saline with Tween-80) 102 % of control; (endpoint: mean survival time, dose: 1.56 mg/kg/injection, schedule: Q04DX003 (ip), vehicle: saline with Tween-80) 102 % of control; (endpoint: mean survival time, dose: 3.12 mg/kg/injection, schedule: Q04DX003 (ip), vehicle: saline with Tween-80) 105 % of control.

Consider `CC1(C)CC(Cc2ccccc2)C(=O)c2ccccc21` (stereo not given), for which the T/C under setting [5] was 94 % of control, the T/C under setting [6] was 92 % of control and the T/C under setting [7] was 94 % of control.

For `O=[N+]([O-])c1ccc(N/N=C2\C(c3ccccc3)=C(c3ccccc3)CC2Cl)c([N+](=O)[O-])c1` (stereo not given), the T/C was 90 % of control under setting [9], 101 % of control under setting [10] and 96 % of control under setting [11].

Turning to `C[C@]12CCC(=O)C=C1CC[C@@H]1[C@@H]2[C@@H](O)C[C@@]2(C)[C@H]1CC[C@]2(O)C(=O)COC(=O)COCC(=O)O`, the T/C (endpoint: mean survival time, dose: 100.0 mg/kg/injection, schedule: Q01DX001 (sc), vehicle: steriod suspending solution) is 106 % of control; the T/C (endpoint: mean survival time, dose: 200.0 mg/kg/injection, schedule: Q01DX001 (sc), vehicle: steriod suspending solution) is 108 % of control; the T/C (endpoint: mean survival time, dose: 400.0 mg/kg/injection, schedule: Q01DX001 (sc), vehicle: steriod suspending solution) is 103 % of control.

Regarding `CC1(C)N=C(N)N=C(N)N1c1ccc(OCCNS(=O)(=O)c2cccc(S(=O)(=O)F)c2)c(Cl)c1`, the T/C is, setting by setting: (endpoint: mean survival time, dose: 12.5 mg/kg/injection, schedule: Q01DX009 (ip), vehicle: saline with Tween-80) 108 % of control; under setting [1], 110 % of control; under setting [2], 117 % of control; under setting [9], 97 % of control; under setting [3], 164 % of control; under setting [12], 97 % of control. Besides, the T/C is 107 % of control under setting [10]; 94 % of control under setting [4]; 108 % of control (endpoint: mean survival time, dose: 200.0 mg/kg/injection, schedule: Q04DX002 (ip), vehicle: saline with Tween-80); 111 % of control under setting [11]; 101 % of control (endpoint: mean survival time, dose: 400.0 mg/kg/injection, schedule: Q04DX002 (ip), vehicle: saline with Tween-80).

Regarding `COc1cc2c(cc1OC)C(CC(C)C)=[N+](C)CC2`, the T/C by setting is: under setting [1], 103 % of control; under setting [2], 98 % of control; under setting [3], 109 % of control; under setting [12], 92 % of control.

As for `Cc1ccc(S(=O)(=O)[n+]2ccccc2)cc1`, the T/C is 97 % of control (endpoint: mean survival time, dose: 100.0 mg/kg/injection, schedule: Q04DX003 (ip), vehicle: saline); 103 % of control (endpoint: mean survival time, dose: 200.0 mg/kg/injection, schedule: Q04DX003 (ip), vehicle: saline); 95 % of control (endpoint: mean survival time, dose: 400.0 mg/kg/injection, schedule: Q04DX003 (ip), vehicle: saline).

As to `Ic1cccs1`, the T/C (endpoint: mean survival time, dose: 100.0 mg/kg/injection, schedule: Q01DX001 (ip), vehicle: saline) is 95 % of control.

Turning to `COC(=O)C1C2CC(C3OC23)C1C(=O)OC` (stereo not given), the T/C by setting is: under setting [3], 100 % of control; under setting [5], 97 % of control; under setting [4], 115 % of control; under setting [6], 89 % of control; under setting [13], 102 % of control; under setting [7], 103 % of control.

With `CN1CC(NC(=O)N(CCCl)N=O)CC2c3cccc4c3c(cn4N=O)CC21` (stereo not given), the T/C is, setting by setting: (endpoint: mean survival time, dose: 12.5 mg/kg/injection, schedule: Q01DX001 (ip), vehicle: other) 105 % of control; (endpoint: mean survival time, dose: 25.0 mg/kg/injection, schedule: Q01DX001 (ip), vehicle: other) 117 % of control; (endpoint: mean survival time, dose: 50.0 mg/kg/injection, schedule: Q01DX001 (ip), vehicle: other) 121 % of control; under setting [8], 164 % of control; (endpoint: mean survival time, dose: 400.0 mg/kg/injection, schedule: Q01DX001 (ip), vehicle: other) 289 % of control.

Take `CC(=O)O.[Ni]`: the T/C (endpoint: mean survival time, dose: 40.0 mg/kg/injection, schedule: Q01DX001 (ip), vehicle: saline) is 118 % of control.

On to `O=C(O)c1ccc(OCCOc2ccccc2)cc1`, for which the T/C is 101 % of control (endpoint: mean survival time, dose: 66.0 mg/kg/injection, schedule: Q04DX003 (ip), vehicle: saline sonified); 96 % of control (endpoint: mean survival time, dose: 100.0 mg/kg/injection, schedule: Q04DX003 (ip), vehicle: saline sonified); 107 % of control (endpoint: mean survival time, dose: 150.0 mg/kg/injection, schedule: Q04DX003 (ip), vehicle: saline sonified).

On to `COC(=O)C1(C)CCCC2(C)C1CCC1(O)C2CC2OC2(C(C)C)C1O` (stereo not given), for which the T/C by setting is: under setting [3], 102 % of control; under setting [5], 97 % of control; under setting [4], 96 % of control; under setting [6], 93 % of control; under setting [13], 98 % of control; under setting [7], 87 % of control.

`CCC(C)C(C)OC(=O)c1cc([N+](=O)[O-])cc([N+](=O)[O-])c1` (stereo not given): the T/C reads like this: under setting [3], 105 % of control; under setting [5], 92 % of control; under setting [4], 104 % of control; under setting [6], 97 % of control; under setting [13], 90 % of control; under setting [7], 103 % of control.

Consider `COc1cccc(CN2CCNCC2)c1`, for which the T/C runs as follows: (endpoint: mean survival time, dose: 25.0 mg/kg/injection, schedule: Q01DX005 (ip), vehicle: water) 102 % of control; (endpoint: mean survival time, dose: 50.0 mg/kg/injection, schedule: Q01DX005 (ip), vehicle: water) 102 % of control; (endpoint: mean survival time, dose: 100.0 mg/kg/injection, schedule: Q01DX005 (ip), vehicle: water) 102 % of control.
